# Source: publication PMC6801448, “The Antioxidant and Antiproliferative Activities of 1,2,3-Triazolyl-L-Ascorbic Acid Derivatives” (International Journal of Molecular Sciences, 2019)
# Like-named read-outs stand apart in the source and are kept apart here.
# How the values were obtained:
# WI-38 (lung fibroblasts) = test: MTT proliferation assay, WI-38; type: cell-based; settings: Homo sapiens, 72 h, normal lung fibroblasts
# Protocol: (§1) Human tumor cell lines HeLa (cervical carcinoma), SW620 (colorectal adenocarcinoma, metastatic), A549 (lung adenocarcinoma), MCF−7 (breast adenocarcinoma), CFPAC-1 (pancreatic adenocarcinoma, metastatic), HCT-116 (colorectal carcinoma), and HepG2 (hepatocellular carcinoma), and normal cell lines HFF-1 (foreskin fibroblasts) and WI-38 (immortalized human lung fibroblast), were from the US American Type Culture Collection (ATCC, Manassas, VA, USA). Cells were cultured in a liquid nutrient medium (Dulbecco’s Modified Eagle Medium, LONZA, Basel, Switzerland) supplemented with 10% fetal bovine serum (FBS, Gibco, Grand Island, NY, USA), 2 mM L-glutamine (GIBCO, Grand Island, NY, USA), 100 μg/mL penicillin, and 100 μg/mL streptomycin (LONZA, Basel, Switzerland), in an incubator (NÜVE, Ankara, Turkey), at a humid atmosphere with 5% CO2 at 37 °C. Trypsin/EDTA Solution (Lonza, Basel, Switzerland), was used for cell passaging and cell detachment.
# (§2) Adherent cells were seeded on 96 well microtiter plates (Falcon, New York, NY, USA) at a seeding density of 5000 cells per well, added in 150 μL of cell suspension in a nutrient medium. 24 h after seeding, cells were treated with compound 4b–4g, 4i, 4k–4t, 4v, 7c–7g, and 7i–7q dilutions in the range of 0.01 μM to 100 μM. L-ascoric acid (Sigma Aldrich, Darmstadt, Germany) and Carboxyamidotriazole (Sigma Aldrich, Darmstadt, Germany) were used as control compounds. Incubation of the cells with the compounds were performed for 72 h in a 5% CO2, in humid atmosphere at 37 °C. After incubation, nutrient medium was removed and 40 μL of the MTT reagent ([…]-2,5-diphenyltetrazole bromide (Invitrogen, Carlsbad, CA, USA) was added to each well. 3 h after incubation, 160 μL of DMSO (VWR CHEMICALS, Radnor, PA, USA) were added to each well to dissolve the crystals of purple formazane. The absorbance was measured at 570 nm (TECAN SUNRISE Microtiter plate reader (Männedorf, Switzerland). The experimentally measured optical densities (OD) were converted to the PG (percentage of growth), using the formulas according to the protocol assumed by NIH (National Institute of Health). The IC50 values (concentration causing 50% cell growth inhibition) for each compound were calculated by regression analysis of the survival count curve of the concentrations of the tested compounds. The results were processed in Excel 2010 (Microsoft, Redmond, WA, USA).
# [1] = test system: HFF-1 (foreskin fibroblasts); test: MTT proliferation assay, HFF-1; type: cell-based; settings: Homo sapiens, 72 h, normal foreskin fibroblasts
# Protocol: as §1, §2
# [2] = test system: MCF-7 (breast adenocarcinoma); test: MTT proliferation assay, MCF-7; type: cell-based, Human; settings: Homo sapiens, MCF7; 72 h, MTT
# Protocol: as §1, §2
# [3] = DPPH radical scavenging assay; type: biochemical
# Protocol: Likewise, L-ASA, the 1,2,3-triazole L-ASA derivatives with free C2-OH and C3-OH groups were expected to be potent antioxidants. Therefore, they were tested as radical scavengers by reaction with the stable free radical 2,2-diphenyl-1-picrylhydrazyl (DPPH^•).
# Antioxidant capacity of selected compounds was assessed by 2,2-diphenyl-1-picrylhydrazyl assay (DPPH, Sigma Aldrich, Darmstadt, Germany), in which the antioxidant activity of compounds is measured by the reaction between a stable radical of 1,1-diphenyl-2-picylhydrazil (DPPH^•) and a selected compound according to the manufacturer recommendations. Briefly, compounds 4b–4e, 4f–4h, 4k, 4l, 4o, 4p–4s, 4t, 4v, 7c–7f, 7i–7n, 7q, 7p, and 7o were tested at 0.06, 0.12, 0.18, 0.23, 0.25, and 0.28 mM. L-ascorbic acid was used as the reference compound. Absorbance was measured 5 and 10 min after incubation of the compounds with the DPPH reagent. The reduction of DPPH with selected compounds was monitored by measuring the absorbance at a wavelength of 517 nm on the monochromator (Infinite M200 PRO, TECAN, Männedorf, Switzerland).
# [4] = test system: A549 (lung adenocarcinoma); test: MTT proliferation assay, A549; type: cell-based; settings: Homo sapiens, 72 h
# Protocol: as §1, §2
# [5] = test system: HeLa (cervical carcinoma); test: MTT proliferation assay, HeLa; type: cell-based; settings: Homo sapiens, 72 h
# Protocol: as §1, §2
# [6] = test system: HCT-116 (colorectal carcinoma); test: MTT proliferation assay, HCT-116; type: cell-based; settings: Homo sapiens, 72 h
# Protocol: as §1, §2
# [7] = test system: SW620 (colorectal adenocarcinoma, metastatic); test: MTT proliferation assay, SW620; type: cell-based; settings: Homo sapiens, SW-620, 72 h
# Protocol: as §1, §2
# [8] = test system: HepG2 (hepatocellular carcinoma); test: MTT proliferation assay, HepG2; type: cell-based; settings: Homo sapiens, 72 h
# Protocol: as §1, §2
# [9] = test system: CFPAC-1 (ductal pancreatic adenocarcinoma); test: MTT proliferation assay, CFPAC-1; type: cell-based; settings: Homo sapiens, 72 h
# Protocol: as §1, §2
# [10] = 5 min treatment, read-out: IC50 of DPPH• inhibition, Treatm. 5 min
# [11] = 10 min treatment, read-out: IC50 of DPPH• inhibition, Treatm. 10 min
SMILES,melting point,IC50 [2],"IC50 [3, 10]","IC50 [3, 11]",IC50 [4],IC50 [5],IC50 [6],IC50 [7],IC50 [8],IC50 [9],IC50 (WI-38 (lung fibroblasts)),IC50 [1]
"O=C1O[C@H]([C@@H](O)Cn2cc(C3CC3)nn2)C(O)=C1O [Compound 4l, 6-[4-cyclopropyl-1,2,3-triazol-1-yl]-6-deoxy-L-ascorbic acid]",119 to 121 °C,> 100 µM,170 ± 160 µM,160 ± 140 µM,> 100 µM,> 100 µM,> 100 µM,> 100 µM,> 100 µM,> 100 µM,> 100 µM,4.61 µM
"O=C1O[C@H]([C@@H](O)Cn2cc(-c3cc(C(F)(F)F)cc(C(F)(F)F)c3)nn2)C(O)=C1O [Compound 4c, 6-deoxy-6-[4-(3,5-bis(trifluoromethyl)phenyl)-1,2,3-triazol-1-yl]-L-ascorbic acid]",≥ 250 °C,> 100 µM,260 ± 20 µM,250 µM,> 100 µM,> 100 µM,> 100 µM,> 100 µM,> 100 µM,> 100 µM,> 100 µM,> 100 µM
"O=C1O[C@H]([C@@H](O)Cn2cc(-c3ccccc3O)nn2)C(O)=C1O [Compound 4i, 6-deoxy-6-[2-hydroxyphenyl-1,2,3-triazol-1-yl]-L-ascorbic acid]",129 to 131 °C,> 100 µM,> 280 µM,> 280 µM,> 100 µM,> 100 µM,> 100 µM,> 100 µM,> 100 µM,> 100 µM,> 100 µM,0.92 µM
"CC(C)(C)c1cn(C[C@H](O)[C@H]2OC(=O)C(O)=C2O)nn1 [Compound 4o, 6-[4-(tert-butyl)-1,2,3-triazol-1-yl]-6-deoxy-L-ascorbic acid]",≥ 250 °C,> 100 µM,240 ± 28 µM,240 ± 40 µM,> 100 µM,93 µM,> 100 µM,> 100 µM,> 100 µM,> 100 µM,95 µM,< 0.01 µM
O=C1O[C@H]([C@@H](O)Cn2cc(CNS(=O)(=O)c3ccc(F)cc3Cl)nn2)C(O)=C1O [Compound 4t],198 to 200 °C,> 100 µM,220 ± 80 µM,120 ± 20 µM,> 100 µM,> 100 µM,> 100 µM,> 100 µM,> 100 µM,> 100 µM,> 100 µM,> 100 µM
Cc1ccc(S(=O)(=O)NCc2cn(C[C@H](O)[C@H]3OC(=O)C(O)=C3O)nn2)cc1 [Compound 4r],125 to 127 °C,> 100 µM,250 µM,270 ± 20 µM,> 100 µM,> 100 µM,> 100 µM,> 100 µM,> 100 µM,> 100 µM,> 100 µM,> 100 µM
"CCCCCCCCCCc1cn(C/C=C2\OC(=O)C(O)=C2O)nn1 [Compound 7n, 6-(4-decyl-1,2,3-triazol-1-il)-4,5-didehydro-5,6-dideoxy-L-ascorbic acid]",169 to 171 °C,> 100 µM,140 µM,100 µM,> 100 µM,> 100 µM,> 100 µM,> 100 µM,> 100 µM,> 100 µM,> 100 µM,–

# More lines, main results first:
melting point,IC50 [2],"IC50 [3, 10]","IC50 [3, 11]",IC50 [4],IC50 [5],IC50 [6],IC50 [7],IC50 [8],IC50 [9],SMILES,IC50 (WI-38 (lung fibroblasts)),IC50 [1]
86 to 88 °C,99.6 µM,150 ± 60 µM,150 ± 60 µM,> 100 µM,48 µM,> 100 µM,> 100 µM,> 100 µM,> 100 µM,"O=C1O[C@H]([C@@H](O)Cn2cc(CCCCl)nn2)C(O)=C1O [Compound 4p, 6-[4-(3-chloropropyl)-1,2,3-triazol-1-yl]-6-deoxy-L-ascorbic acid]",52.6 µM,6.05 µM
184 to 186 °C,> 100 µM,240 ± 20 µM,230 µM,> 100 µM,> 100 µM,63.3 µM,> 100 µM,> 100 µM,> 100 µM,"O=C1O[C@H]([C@@H](O)Cn2cc(CCO)nn2)C(O)=C1O [Compound 4q, 6-deoxy-6-(4-(2-hydroxyethyl)-1,2,3-triazol-1-yl)-L-ascorbic acid]",> 100 µM,> 100 µM
140 to 142 °C,> 100 µM,150 ± 60 µM,100 ± 30 µM,> 100 µM,> 100 µM,> 100 µM,> 100 µM,> 100 µM,> 100 µM,"CCCCCCCCCCc1cn(C[C@H](O)[C@H]2OC(=O)C(O)=C2O)nn1 [Compound 4n, 6-(4-decyl-1,2,3-triazol-1-yl)-6-deoxy-L-ascorbic acid]",> 100 µM,0.06 µM
98 to 99 °C,> 100 µM,> 280 µM,> 280 µM,> 100 µM,> 100 µM,> 100 µM,> 100 µM,> 100 µM,> 100 µM,"CCCCc1cn(C[C@H](O)[C@H]2OC(=O)C(O)=C2O)nn1 [Compound 4m, 6-(4-butyl-1,2,3-triazol-1-yl)-6-deoxy-L-ascorbic acid]",> 100 µM,0.12 µM
132 to 134 °C,> 100 µM,270 ± 20 µM,250 µM,> 100 µM,> 100 µM,> 100 µM,> 100 µM,> 100 µM,> 100 µM,O=C1O[C@H]([C@@H](O)Cn2cc(CNS(=O)(=O)c3ccc(Cl)cc3)nn2)C(O)=C1O [Compound 4s],> 100 µM,0.4 µM
237 to 239 °C,26.9 µM,210 ± 70 µM,130 ± 40 µM,> 100 µM,> 100 µM,> 100 µM,> 100 µM,> 100 µM,> 100 µM,"CCCCCc1ccc(-c2cn(C[C@H](O)[C@H]3OC(=O)C(O)=C3O)nn2)cc1 [Compound 4k, 6-deoxy-6-[4-(4-pentylphenyl)-1,2,3-triazol-1-yl]-L-ascorbic acid]",> 100 µM,0.21 µM
